According to ChEMBL document CHEMBL6121063, “Identification of a Potent and Selective CDK9 Degrader as a Targeted Therapeutic Option for the Treatment of Small-Cell Lung Cancer” (J Med Chem, 2025):
Values after ≈ are worked out from the molar mass of the structure shown.

How the values were obtained:
[1] = biological target: Cyclin-dependent kinase 2 (Homo sapiens, UniProt P24941); test: Inhibition of CDK2 (unknown origin)
[2] = biological target: Cyclin-dependent kinase 1 (Homo sapiens, UniProt P06493)
Chain of Cyclin-dependent kinase 1 (P06493 whole entry): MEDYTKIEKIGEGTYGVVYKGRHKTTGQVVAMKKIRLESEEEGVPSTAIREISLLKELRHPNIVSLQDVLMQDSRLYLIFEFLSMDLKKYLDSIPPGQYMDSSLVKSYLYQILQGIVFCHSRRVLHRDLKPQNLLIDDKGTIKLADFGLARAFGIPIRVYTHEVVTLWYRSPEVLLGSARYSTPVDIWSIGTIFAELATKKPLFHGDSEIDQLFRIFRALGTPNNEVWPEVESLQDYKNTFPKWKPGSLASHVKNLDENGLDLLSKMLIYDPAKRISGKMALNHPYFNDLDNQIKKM

[3] = biological target: Cyclin-dependent kinase 3 (Homo sapiens, UniProt Q00526); test: Inhibition of CDK3 (unknown origin)
Chain of Cyclin-dependent kinase 3 (Q00526 whole entry): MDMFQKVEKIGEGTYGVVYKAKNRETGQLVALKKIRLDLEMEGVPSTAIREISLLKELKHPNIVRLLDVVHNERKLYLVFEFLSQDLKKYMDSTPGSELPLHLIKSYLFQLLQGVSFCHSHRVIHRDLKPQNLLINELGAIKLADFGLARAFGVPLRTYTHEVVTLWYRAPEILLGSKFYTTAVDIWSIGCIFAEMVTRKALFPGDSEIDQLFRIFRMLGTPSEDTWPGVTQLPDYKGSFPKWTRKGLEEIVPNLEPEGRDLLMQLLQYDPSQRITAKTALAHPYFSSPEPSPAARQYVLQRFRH

[4] = biological target: Cyclin-dependent kinase 5 (Homo sapiens, UniProt Q00535)
Chain of Cyclin-dependent kinase 5 (Q00535 whole entry): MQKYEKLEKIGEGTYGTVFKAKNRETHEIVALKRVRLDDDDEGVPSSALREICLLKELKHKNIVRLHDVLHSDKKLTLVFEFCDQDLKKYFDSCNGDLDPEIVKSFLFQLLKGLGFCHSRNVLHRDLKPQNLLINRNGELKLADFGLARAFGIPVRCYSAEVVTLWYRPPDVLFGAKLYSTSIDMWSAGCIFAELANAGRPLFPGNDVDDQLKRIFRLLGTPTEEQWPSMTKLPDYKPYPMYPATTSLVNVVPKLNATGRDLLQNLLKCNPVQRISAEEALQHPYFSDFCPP

[5] = biological target: Cyclin-dependent kinase 4 (Homo sapiens, UniProt P11802); test: Inhibition of CDK4 (unknown origin)
Chain of Cyclin-dependent kinase 4 (P11802 whole entry): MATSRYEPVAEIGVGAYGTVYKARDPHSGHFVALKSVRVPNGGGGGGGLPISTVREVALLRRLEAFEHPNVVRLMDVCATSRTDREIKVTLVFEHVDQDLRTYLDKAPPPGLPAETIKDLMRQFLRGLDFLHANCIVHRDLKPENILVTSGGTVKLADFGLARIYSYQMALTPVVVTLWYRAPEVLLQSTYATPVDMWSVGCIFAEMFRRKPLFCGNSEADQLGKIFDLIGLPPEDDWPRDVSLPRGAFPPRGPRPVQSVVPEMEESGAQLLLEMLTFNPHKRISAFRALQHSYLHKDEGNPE

NCI-H446 [6] = test: Antiproliferative activity against human NCI-H446 cells assessed as inhibition of cell growth incubated for 72 hrs by CCK8 assay; format: functional, cell-based; conditions: NCI-H446, 72 h
NCI-H446 [7] = test: Antitumor activity against human NCI-H446 cells xenografted in female NU-NU mouse model assessed as tumor growth inhibition at 12.5 mg/kg, po administered once daily for 15 days relative to control; format: functional; conditions: NCI-H446, 360 h, time 15 day, read-out: TGI
[8] = AUC (0 to 24 hrs) in mouse at 25 mg/kg, po; format: ADME, organism-based; conditions: in vivo
[9] = Oral bioavailability in mouse at 25 mg/kg; format: ADME, organism-based; conditions: in vivo
NCI-H524 = test: Antiproliferative activity against human NCI-H524 cells assessed as inhibition of cell growth incubated for 72 hrs by CCK8 assay; format: functional, cell-based; conditions: NCI-H524, 72 h
[10] = Cytotoxicity against human BEAS-2B cells assessed as inhibition of cell growth incubated for 72 hrs by CCK8 assay; format: toxicity, cell-based
[11] = Kinetic solubility of compound in FeSSIF buffer incubated for 2 hrs by LC-MS/MS analysis; format: physicochemical; conditions: read-out: Kinetic_solubility
[12] = Efflux ratio of apparent permeability across basolateral to apical over apical to basolateral side in human Caco-2 cells at 2 uM measured after 60 mins by HPLC analysis; format: ADME, cell-based
[13] = Metabolic stability in human liver microsomes assessed as intrinsic clearance; format: ADME, Microsome; conditions: liver microsomes, read-out: CLH
[14] = Metabolic stability in mouse liver microsomes assessed as intrinsic clearance; format: ADME, Microsome; conditions: liver microsomes, read-out: CLH
Mus musculus [15] = test: Hematotoxicity in mouse assessed as effect on WBC count at 12.5 to 25 mg/kg, po administered daily for 14 days; format: toxicity, organism-based; conditions: in vivo, 336 h, dose 12.5-25 mg/kg, time 14 day
[16] = Cytotoxicity against human L02 cells assessed as inhibition of cell growth incubated for 72 hrs by CCK8 assay; format: toxicity, cell-based
[17] = biological target: Voltage-gated inwardly rectifying potassium channel KCNH2 (Homo sapiens, UniProt Q12809); test: Inhibition of human ERG expressed in HEK293 cells by manual-patch clamp assay; format: toxicity, cell-based
Chain of Voltage-gated inwardly rectifying potassium channel KCNH2 (Q12809 whole entry): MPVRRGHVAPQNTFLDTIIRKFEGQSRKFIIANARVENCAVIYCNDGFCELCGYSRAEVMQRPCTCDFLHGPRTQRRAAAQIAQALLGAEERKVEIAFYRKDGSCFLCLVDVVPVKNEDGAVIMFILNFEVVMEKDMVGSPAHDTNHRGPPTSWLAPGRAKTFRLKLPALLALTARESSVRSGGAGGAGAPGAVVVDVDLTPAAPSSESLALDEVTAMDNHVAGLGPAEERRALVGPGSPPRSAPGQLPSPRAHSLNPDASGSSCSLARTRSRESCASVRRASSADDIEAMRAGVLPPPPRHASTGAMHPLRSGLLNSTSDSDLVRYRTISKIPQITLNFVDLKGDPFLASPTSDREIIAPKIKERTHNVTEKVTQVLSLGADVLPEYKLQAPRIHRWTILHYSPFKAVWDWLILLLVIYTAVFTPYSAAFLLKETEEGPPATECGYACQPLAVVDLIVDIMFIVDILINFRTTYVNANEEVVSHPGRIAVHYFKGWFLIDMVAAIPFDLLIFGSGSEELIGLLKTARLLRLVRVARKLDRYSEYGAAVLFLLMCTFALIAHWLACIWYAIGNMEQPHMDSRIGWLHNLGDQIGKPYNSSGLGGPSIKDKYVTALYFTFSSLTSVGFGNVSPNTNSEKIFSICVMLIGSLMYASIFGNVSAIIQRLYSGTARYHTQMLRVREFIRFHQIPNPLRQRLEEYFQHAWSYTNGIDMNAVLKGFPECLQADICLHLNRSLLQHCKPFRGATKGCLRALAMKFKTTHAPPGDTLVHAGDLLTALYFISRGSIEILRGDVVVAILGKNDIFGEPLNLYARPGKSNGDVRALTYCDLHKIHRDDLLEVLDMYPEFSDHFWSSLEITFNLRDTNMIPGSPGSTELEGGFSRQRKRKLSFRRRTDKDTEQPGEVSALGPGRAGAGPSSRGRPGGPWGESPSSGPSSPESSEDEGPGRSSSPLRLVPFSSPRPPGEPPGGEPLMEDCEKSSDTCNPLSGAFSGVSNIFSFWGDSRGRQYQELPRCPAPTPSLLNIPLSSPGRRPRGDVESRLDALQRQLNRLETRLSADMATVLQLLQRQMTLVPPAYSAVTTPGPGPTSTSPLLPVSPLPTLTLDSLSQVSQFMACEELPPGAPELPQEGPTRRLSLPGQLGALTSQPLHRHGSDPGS

[18] = AUC (0 to 24 hrs) in Sprague-Dawley rat at 5 mg/kg, iv measured after 12 hrs by LC-MS/MS analysis; format: ADME, organism-based; conditions: in vivo
[19] = Metabolic stability in human liver microsomes assessed as half-life; format: ADME, Microsome; conditions: liver microsomes
Mus musculus [20] = test: Hematotoxicity in mouse assessed as effect on platelet count at 12.5 to 25 mg/kg, po administered daily for 14 days; format: toxicity, organism-based; conditions: in vivo, 336 h, dose 12.5-25 mg/kg, time 14 day
[21] = Cytotoxicity against HEK293T cells assessed as inhibition of cell growth incubated for 72 hrs by CCK8 assay; format: toxicity, cell-based, HEK-293T; conditions: human
[22] = Toxicity in mouse assessed as pathological changes in spleen at 12.5 to 25 mg/kg, po administered daily for 14 days by H and E staining based analysis; format: organism-based; conditions: in vivo, 336 h, dose 12.5-25 mg/kg, time 14 day
[23] = Toxicity in mouse assessed as pathological changes in liver at 12.5 to 25 mg/kg, po administered daily for 14 days by H and E staining based analysis; format: organism-based; conditions: in vivo, 336 h, dose 12.5-25 mg/kg, time 14 day
[24] = AUC (0 to infinity) in mouse at 25 mg/kg, po; format: ADME, organism-based; conditions: in vivo
NCI-H446 [25] = test: Antitumor activity against human NCI-H446 cells xenografted in female NU-NU mouse model assessed as tumor growth inhibition at 25 mg/kg, po administered once daily for 15 days relative to control; format: functional; conditions: NCI-H446, 360 h, time 15 day, read-out: TGI
[26] = Cmax in Sprague-Dawley rat at 25 mg/kg, po measured after 12 hrs by LC-MS/MS analysis; format: ADME, organism-based; conditions: in vivo
DMS-114 = test: Antiproliferative activity against human DMS-114 cells assessed as inhibition of cell growth incubated for 72 hrs by CCK8 assay; format: functional, cell-based; conditions: DMS-114, 72 h
[27] = Half-life in mouse at 5 mg/kg, iv; format: ADME, organism-based; conditions: in vivo
NCI-H146 = test: Antiproliferative activity against human NCI-H146 cells assessed as inhibition of cell growth incubated for 72 hrs by CCK8 assay; format: functional, cell-based; conditions: NCI-H146, 72 h
[28] = AUC (0 to 24 hrs) in Sprague-Dawley rat at 25 mg/kg, po measured after 12 hrs by LC-MS/MS analysis; format: ADME, organism-based; conditions: in vivo
[29] = AUC (0 to 24 hrs) in mouse at 5 mg/kg, iv; format: ADME, organism-based; conditions: in vivo
[30] = Cmax in mouse at 25 mg/kg, po; format: ADME, organism-based; conditions: in vivo
[31] = Toxicity in mouse assessed as pathological changes in lung at 12.5 to 25 mg/kg, po administered daily for 14 days by H and E staining based analysis; format: organism-based; conditions: in vivo, 336 h, dose 12.5-25 mg/kg, time 14 day
[32] = Metabolic stability in human liver microsomes assessed as parent compound remaining measured after 60 mins; format: ADME, Microsome; conditions: read-out: Stability
[33] = Toxicity in mouse assessed as pathological changes in heart at 12.5 to 25 mg/kg, po administered daily for 14 days by H and E staining based analysis; format: organism-based; conditions: in vivo, 336 h, dose 12.5-25 mg/kg, time 14 day
[34] = Cmax in mouse at 5 mg/kg, iv; format: ADME, organism-based; conditions: in vivo
[35] = Cytotoxicity against human MCF-10A cells assessed as inhibition of cell growth incubated for 72 hrs by CCK8 assay; format: toxicity, cell-based
[36] = Metabolic stability in mouse liver microsomes assessed as half-life; format: ADME, Microsome; conditions: liver microsomes
[37] = AUC (0 to infinity) in Sprague-Dawley rat at 25 mg/kg, po measured after 12 hrs by LC-MS/MS analysis; format: ADME, organism-based; conditions: in vivo
[38] = Apparent permeability across basolateral to apical side in human Caco-2 cells at 2 uM measured after 60 mins by HPLC analysis; format: ADME, cell-based
[39] = Half-life in Sprague-Dawley rat at 25 mg/kg, po measured after 12 hrs by LC-MS/MS analysis; format: ADME, organism-based; conditions: in vivo
[40] = AUC (0 to infinity) in mouse at 5 mg/kg, iv; format: ADME, organism-based; conditions: in vivo
Mus musculus [41] = test: Toxicity in female NU/NU mouse model xenografted with human NCI-H446 cells assessed as effect on body weight at 12.5 to 25 mg/kg, po administered once daily for 15 days; format: organism-based; conditions: in vivo, 360 h, dose 12.5-25 mg/kg, time 15 day
[42] = Oral bioavailability in Sprague-Dawley rat at 25 mg/kg measured after 12 hrs by LC-MS/MS analysis; format: ADME, organism-based; conditions: in vivo
[43] = biological target: Protein cereblon/Cyclin-dependent kinase 9 (Homo sapiens, UniProt P50750+Q96SW2); test: PROTAC activity at CRBN/CDK9 in human NCI-H69 cells assessed as induction of CDK9 degradation incubated for 8 hrs by Western blot analysis; format: cell-based
Chain of Protein cereblon/Cyclin-dependent kinase 9 (P50750 whole entry): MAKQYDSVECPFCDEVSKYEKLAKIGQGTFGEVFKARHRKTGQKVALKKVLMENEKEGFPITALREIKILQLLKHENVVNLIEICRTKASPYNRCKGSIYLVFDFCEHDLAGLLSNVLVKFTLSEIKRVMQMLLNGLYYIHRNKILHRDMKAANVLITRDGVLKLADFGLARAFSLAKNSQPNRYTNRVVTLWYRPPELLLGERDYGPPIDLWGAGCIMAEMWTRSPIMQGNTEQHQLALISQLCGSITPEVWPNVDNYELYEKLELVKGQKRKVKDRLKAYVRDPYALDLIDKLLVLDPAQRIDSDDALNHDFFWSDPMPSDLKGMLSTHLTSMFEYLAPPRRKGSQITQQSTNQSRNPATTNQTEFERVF
Chain of Protein cereblon/Cyclin-dependent kinase 9 (Q96SW2 whole entry): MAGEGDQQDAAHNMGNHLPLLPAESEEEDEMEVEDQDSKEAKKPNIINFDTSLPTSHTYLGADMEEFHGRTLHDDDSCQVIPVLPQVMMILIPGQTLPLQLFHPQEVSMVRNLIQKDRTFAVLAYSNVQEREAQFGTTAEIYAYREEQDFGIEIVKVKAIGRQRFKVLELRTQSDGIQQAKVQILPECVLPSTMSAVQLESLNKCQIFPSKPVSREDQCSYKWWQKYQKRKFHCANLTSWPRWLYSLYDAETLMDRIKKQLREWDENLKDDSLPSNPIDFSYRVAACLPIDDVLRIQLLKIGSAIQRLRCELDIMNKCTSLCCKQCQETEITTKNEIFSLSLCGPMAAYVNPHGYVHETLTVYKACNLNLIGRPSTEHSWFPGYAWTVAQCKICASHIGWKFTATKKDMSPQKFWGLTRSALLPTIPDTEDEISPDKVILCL

[44] = Toxicity in mouse assessed as pathological changes in kidney at 12.5 to 25 mg/kg, po administered daily for 14 days by H and E staining based analysis; format: organism-based; conditions: in vivo, 336 h, dose 12.5-25 mg/kg, time 14 day
[45] = Half-life in mouse at 25 mg/kg, po; format: ADME, organism-based; conditions: in vivo
Mus musculus [46] = test: Toxicity in female NU/NU mouse model xenografted with human NCI-H446 cells expressing luciferase-GFP assessed as effect on body weight at 12.5 to 25 mg/kg, po administered for 19 days; format: organism-based; conditions: in vivo, 456 h, dose 12.5-25 mg/kg, time 19 day
[47] = Cmax in Sprague-Dawley rat at 5 mg/kg, iv measured after 12 hrs by LC-MS/MS analysis; format: ADME, organism-based; conditions: in vivo
[48] = AUC (0 to infinity) in Sprague-Dawley rat at 5 mg/kg, iv measured after 12 hrs by LC-MS/MS analysis; format: ADME, organism-based; conditions: in vivo
[49] = Metabolic stability in mouse liver microsomes assessed as parent compound remaining measured after 60 mins; format: ADME, Microsome; conditions: read-out: Stability
[50] = Half-life in Sprague-Dawley rat at 5 mg/kg, iv measured after 12 hrs by LC-MS/MS analysis; format: ADME, organism-based; conditions: in vivo
[51] = Apparent permeability across apical to basolateral side in human Caco-2 cells at 2 uM measured after 60 mins by HPLC analysis; format: ADME, cell-based
NCI-H69 = test: Antiproliferative activity against human NCI-H69 cells assessed as inhibition of cell growth incubated for 72 hrs by CCK8 assay; format: functional, cell-based; conditions: NCI-H69, 72 h

COCCN1CCN(Cc2ccc(-c3n[nH]c4c3C(=O)c3c(NC(=O)NN5CCOCC5)cccc3-4)cc2)CC1 [RGB-286638]
IC50 [1]: < 5 nM
IC50 [2]: < 5 nM
IC50 [3]: < 5 nM
IC50 [4]: < 5 nM
IC50 [5]: < 5 nM

O=C1CCC(Nc2cccc(N3CCN(CC4CCN(CC(=O)N5CCC(NC(=O)c6n[nH]cc6NC(=O)c6c(Cl)cccc6Cl)CC5)CC4)CC3)c2)C(=O)N1 (stereo not given)
IC50 (NCI-H446 [6]): 1.01 nM
inhibition in vivo at 12.5 mg/kg (NCI-H446 [7]): 79.2%
AUC(0-t) [8]: 951 ng·h/mL
bioavailability [9]: 6.8%
IC50 (NCI-H524): 0.53 nM
IC50 at 72 h [10]: 413 nM
solubility kinetic at 2 h [11]: 234 µM (≈ 189 µg/mL)
efflux ratio at 1 h, 2 µM [12]: 5.2
microsomal CLint [13]: 11 µL/min/mg
microsomal CLint [14]: 9.4 µL/min/mg
Activity (Mus musculus [15]): Non-toxic
IC50 at 72 h [16]: 70 nM
IC50 [17]: > 30000 nM
AUC(0-t) at 12 h [18]: 2180 ng·h/mL
half-life [19]: 1.77 h
Activity (Mus musculus [20]): Non-toxic
IC50 at 72 h [21]: 95 nM
Activity [22]: Minimal_effect
Activity [23]: Minimal_effect
AUC(0-inf) [24]: 971 ng·h/mL
inhibition in vivo at 25 mg/kg (NCI-H446 [25]): 84.8%
Cmax [26]: 179 ng/mL
IC50 (DMS-114): 0.53 nM
half-life [27]: 8.2 h
IC50 (NCI-H146): 0.53 nM
AUC(0-t) at 12 h [28]: 714 ng·h/mL
AUC(0-t) [29]: 2660 ng·h/mL
Cmax [30]: 277 ng/mL
Activity [31]: Minimal_effect
remaining at 1 h [32]: 76.2%
Activity [33]: Minimal_effect
Cmax [34]: 2600 ng/mL
IC50 at 72 h [35]: 126 nM
half-life [36]: 2.42 h
AUC(0-inf) [37]: 893 ng·h/mL
Papp B→A at 1 h, 2 µM [38]: 9.47 ×10⁻⁶ cm/s
half-life [39]: 5.4 h
AUC(0-inf) [40]: 2860 ng·h/mL
Activity (Mus musculus [41]): Non-toxic
bioavailability [42]: 6.5%
DC50 [43]: 1.09 nM
Activity [44]: Minimal_effect
half-life [45]: 4.7 h
Activity (Mus musculus [46]): Non-toxic
Cmax [47]: 2000 ng/mL
AUC(0-inf) [48]: 2330 ng·h/mL
remaining at 1 h [49]: 82.8%
half-life [50]: 2.8 h
Papp A→B at 1 h, 2 µM [51]: 1.81 ×10⁻⁶ cm/s
IC50 (NCI-H69): 1.03 nM
